Measured values reported in paper PMC4786873, “Spacer-free BODIPY fluorogens in antimicrobial peptides for direct imaging of fungal infection in human tissue” (Nature Communications, 2016).
Entries after “also recorded” stand apart in the source; their conditions may differ. Like-named read-outs stand apart in the source and are kept apart here. Starred links: 1 amine or outer side, 2 acyl side, 3 side chain; linkers in the order of their positions; H or OH if unused. Non-standard residues stand in square brackets, D forms with d. Residues, ends and D or L forms follow the SMILES beside them. No end group written: not given here. X1 = CC1=CC(C)=[N+]2C1=C(c1cccc(-c3[nH]c4ccccc4c3C[C@H](N[*:1])C(=O)[*:2])c1)c1c(C)cc(C)n1[B-]2(F)F

Assays:
[1] = system: Pseudomonas aeruginosa (ATCC 47085); assay: In vitro antimicrobial activity (bacterial cell viability, OD600); type: cell-based; settings: 16 h incubation with peptide at its respective IC50 concentration (A. fumigatus), OD600 nm, n=3
Experimental: (§1) P. aeruginosa (ATCC 47085), K. pneumoniae (ATCC BAA1706) and E. coli (ATCC 25922) were grown on Lysogeny Broth (LB) agar plates and stored at 4 °C. For assays, a single colony of bacteria was taken into 10 mL liquid broth and incubated at 37 °C for 16 h. Cultures were centrifuged at 4,000 r.p.m. for 5 min and the pellet was re-suspended in 1 ml of fresh PBS and washed three times. Cultures were reconstituted to 1.0 OD595 nm, then diluted 1:1,000 and incubated with compounds 4–8 at the indicated concentrations (that is, concentrations matching the IC50 values in A. fumigatus for all compounds, except for compounds 3 and 5a where a top concentration of 20 μM was used). Cell viability was monitored over 16 h by measuring OD600 nm in a spectrophotometer. Data is represented as % of cell viability as means from at least two independent experiments with n=3.

[2] = system: Escherichia coli (ATCC 25922); assay: as above; type: cell-based; settings: 16 h incubation with peptide at its respective IC50 concentration (A. fumigatus), OD600 nm, n=3
Experimental: as §1

[3] = system: Klebsiella pneumoniae (ATCC BAA1706); assay: as above; type: cell-based; settings: 16 h incubation with peptide at its respective IC50 concentration (A. fumigatus), OD600 nm, n=3
Experimental: as §1

[4] = system: Aspergillus fumigatus (strain CEA10); type: cell-based; settings: for activity / affinity in A. fumigatus, in words: values only in Supplementary Fig. 8 (picture not shown), 9 compared with linear PAF26 (4)
Experimental: The A. fumigatus (strain CEA10, source: FGSC A1163) was grown on Vogel's medium at 37 °C for 5 days before the spores (conidia) were harvested. Peptides 4–8 were incubated at different concentrations with A. fumigatus conidia to reach a final volume of 100 μl per well. The final conidia concentration was 5 × 10^5 cells ml^−1 in 10% Vogel's medium. After 24 h incubation at 37 °C in 96 well-plates, fungal growth was determined by measuring OD610nm in a spectrophotometer. IC50 values were determined using four parameter logistic regression. Data is represented as means±s.e.m from at least three independent experiments with n=3.
Antimicrobial and ha emolysis assays.
Supplementary Figure 4. Determination of IC50 values of BODIPY-labelled peptides 5- 8 in A. fumigatus. Cell viability plots and non- linear regressions for peptides 5 (A), 6 (B), 7 (C) and 8 (D).
Peptides were incubated at different concentrations with A. fumigatus conidia to r each a final volum e of 100 μ L per well. T he final conidia concentration was 5 × 10^5 cells/m L in 10% Vogel’s m edium . After 24 h incubation at 37 °C in 96 well-plates, fungal growth was determ ined by m easuring the optical densit y at 610 nm . The IC50 values were determ ined using four param eter logistic regression. Data represented as m eans ± s.e.m (n=3).
(§2) (1 picture or pasted object on this page, not shown here)

[5] = Chemical stability in human bronchoalveolar lavages; type: in vitro ADME; settings: human bronchoalveolar lavage from patients with acute respiratory distress syndrome, 37 °C; for remaining at 1 h, 20 μM / remaining at 3 h, 20 μM / remaining at 24 h, 20 μM: HPLC-UV (C18); for remaining at 1 h, 20 μM: read-out: chemical stability in human bronchoalveolar lavage, percentage at 1 h (measure not given); for remaining at 3 h, 20 μM: read-out: chemical stability in human bronchoalveolar lavage, percentage at 3 h (measure not given); for remaining at 24 h, 20 μM: read-out: chemical stability in human bronchoalveolar lavage, percentage at 24 h (measure not given)
Experimental: Peptides 5 and 8 (20 μM) were dissolved in human bronchoalveolar lavage samples (total volume: 100 μl) and incubated at 37 °C for the indicated times. Samples were injected into an high-performance liquid chromatography Agilent 1100 separations module connected to a UV detector with a Discovery C18 column (5 μm, 4.6 × 50 mm). Matrix-assisted laser desorption/ionization data was recorded on a Bruker Ultraflex mass spectrometer using sinapinic acid as the matrix.
Supplementary Figure 9 . Stability of cyclic (8) and linear (5) mono-BODIPY labelled peptid es in human bronchoalveolar lavage samples from p atients w ith acute respiratory distress synd rome.
Pept ides were incubat ed in hum an bronchoalveolar lavage sam ples at 37 °C and anal ysed b y H PLC at the tim e points indicated. Arrows point at the peak s corresponding to the intact linear peptide.
as §2

human RBCs = assay: Determination of haemolytic activity; type: cell-based; settings: red cells of human, 1 h
Experimental: Erythrocytes were isolated from freshly drawn, anticoagulated human blood and diluted in PBS (1:5). An amount of 50 μl of erythrocyte suspension was added to 50 μl of compounds 4–8 at the indicated concentrations (that is, concentrations matching the IC50 values in A. fumigatus for all compounds, except for compounds 3 and 5a where a top concentration of 20 μM was used). 0.2% Triton X-100 was used as positive control and PBS as negative control. The plate was incubated at 37 °C for 1 h, each well was diluted with 150 μl of PBS and the plate was centrifuged at 1,200g for 15 min. A total of 100 μl of the supernatant from each well was transferred to a fresh plate, and the absorbance at 350 nm was measured in a microplate reader. Data is represented as % of cell viability as means from three independent experiments with n=3.
Supplementary Figure 6. Haemolytic activity of peptides 4-8 in human red blood cells (RBCs).
Peptides 4-8 and T riton X-100 (0.2% as positive control) were incubated with hum an RBCs at 37 °C and their viabilit y was assessed after 1 h. Data repres ented as m eans ± s.d. (n=3). *** for p < 0.001 was determ ined as a statis tically s ignificant difference between the c ell viabilities in PBS (phosphate buffer saline) and in T riton X-100.
as §2

[6] = system: human lung A549 epithelial cells; assay: MTT cell viability assay; type: cell-based; settings: MTT, 0, 1.25, 2.5, 5 and 10 μM, 4 h at 37 °C, absorbance 570 nm, means ± s.d., n=4
Experimental: Cell viability was determ ined with a TACS® MTT Cell Proliferation assa y (Trevigen) according to the m anufacturer’s instructions. Briefly, hum an lung A549 epithelial cells were plated on 96-well plates the day before the experim ent, reaching 90- 95% confluence on the day of the experim ent. T he peptide 8 was added to the cells at different concentrations (0, 1.25, 2.5, 5 and 10 µM) and incubated at 37 °C for 4 h. After 4 h, cells were washed, treated according to the m anufacturer’s instructions and their absorbance values (570 nm) were m easured in a Syner gy HT spectrophotom eter (Biotek ). Cell viabilit y data was norm alised to the proliferation of cells without addition of the peptide 8.
Supplementary Figure 17. Cell proliferation assays. Viabilit y of hum an lung A549 epithelial cells after incubation with different concentrations of the peptide 8 . D ata r epresented as m eans ± s.d. (n=4).
as §2

[7] = conidia 5 × 10^5 cells/ml in 10% Vogel's medium, 24 h at 37 °C, OD610 nm, four parameter logistic regression, means±s.e.m., n=3, read-out: IC50 in Aspergillus fumigatus

Molecule	cell viability, Pseudomonas aeruginosa [1]	cell viability, Escherichia coli [2]	cell viability, Klebsiella pneumoniae [3]	IC50 [4, 7]	further results
CC1=CC(C)=[N+]2C1=C(c1cccc(-c3[nH]c4ccccc4c3C[C@H](NC(=O)[C@H](Cc3ccccc3)NC(=O)[C@H](Cc3c[nH]c4ccccc34)NC(=O)[C@H](CCCCN)NC(=O)[C@H](CCCCN)NC(=O)[C@@H](N)CCCNC(=N)N)C(N)=O)c1)c1c(C)cc(C)n1[B-]2(F)F [compound 6] (H-RKKWF[X1]-NH2)	> 99%	95%	96%	3 ± 0.1 µM	–
CC1=CC(C)=[N+]2C1=C(c1cccc(-c3[nH]c4ccccc4c3C[C@H](NC(=O)[C@H](CCCCN)NC(=O)[C@H](CCCCN)NC(=O)[C@@H](N)CCCNC(=N)N)C(=O)N[C@@H](Cc3ccccc3)C(=O)N[C@@H](Cc3c[nH]c4ccccc34)C(N)=O)c1)c1c(C)cc(C)n1[B-]2(F)F [compound 5] (H-RKK[X1]FW-NH2)	> 99%	94%	87%	3.6 ± 0.1 µM	remaining at 1 h, 20 μM ([5]; peptide 20 μM): 49%; remaining at 3 h, 20 μM ([5]; peptide 20 μM): 2%; remaining at 24 h, 20 μM ([5]; peptide 20 μM): < 1%; half-life at 20 μM ([5]; peptide 20 μM, HPLC-UV): < 1 h
RKKWFW-NH2 [compound 4, reference compound]	> 99%	> 99%	93%	–	cell viability, human RBCs (haemolysis) (human RBCs): 99%; IC50 ([4]; strain CEA10, 24 h): 7.9 ± 0.2 µM
CC1=CC(C)=[N+]2C1=C(c1cccc(-c3[nH]c4ccccc4c3C[C@H](NC(=O)[C@H](C)NC(=O)[C@H](C)NC(=O)[C@H](C)N)C(=O)N[C@@H](Cc3ccccc3)C(=O)N[C@@H](Cc3c[nH]c4ccccc34)C(N)=O)c1)c1c(C)cc(C)n1[B-]2(F)F [5a] (H-AAA[X1]FW-NH2)	–	–	–	–	activity / affinity in A. fumigatus, in words [4]: poor activity
CC1=CC(C)=[N+]2C1=C(c1cccc(-c3[nH]c4ccccc4c3C[C@H](NC(=O)[C@H](Cc3ccccc3)NC(=O)[C@H](Cc3c(-c4cccc(C5=C6C(C)=CC(C)=[N+]6[B-](F)(F)n6c(C)cc(C)c65)c4)[nH]c4ccccc34)NC(=O)[C@H](CCCCN)NC(=O)[C@H](CCCCN)NC(=O)[C@@H](N)CCCNC(=N)N)C(N)=O)c1)c1c(C)cc(C)n1[B-]2(F)F [compound 7]	> 99%	95%	93%	2.5 ± 0.1 µM	–
CC1=CC(C)=[N+]2C1=C(c1cccc(-c3[nH]c4ccccc4c3C[C@H](NC(=O)[C@H](CCCCN)NC(=O)[C@H](CCCCN)NC(=O)[C@@H](N)CCCNC(=N)N)C(=O)N[C@@H](C)C(=O)N[C@@H](C)C(N)=O)c1)c1c(C)cc(C)n1[B-]2(F)F [5b] (H-RKK[X1]AA-NH2)	–	–	–	–	activity / affinity in A. fumigatus, in words [4]: reduced activity
CC1=CC(C)=[N+]2C1=C(c1cccc(-c3[nH]c4ccccc4c3C[C@@H]3NC(=O)[C@H](CCCCN)NC(=O)[C@H](CCCCN)NC(=O)[C@H](CCCNC(=N)N)NC(=O)CNC(=O)[C@H](Cc4c[nH]c5ccccc45)NC(=O)[C@H](Cc4ccccc4)NC3=O)c1)c1c(C)cc(C)n1[B-]2(F)F [compound 8] (cyclo(FWGRKK[X1]))	> 99%	96%	94%	2 ± 0.1 µM	cytotoxicity in human lung A549 epithelial cells, in words [6]: No significant differences; also recorded: no cytotoxicity; stability in human bronchoalveolar lavages, in words ([5]; after 24 h, 20 μM, HPLC-UV): remained intact; remaining at 1 h, 20 μM ([5]; peptide 20 μM): 99%; remaining at 3 h, 20 μM ([5]; peptide 20 μM): 99%; remaining at 24 h, 20 μM ([5]; peptide 20 μM): 95%; quantum yield in phospholipid membranes: 30%; affinity for fungal cells compared with peptide 5 ([4]; comparison of IC50 values in A. fumigatus): around two-fold enhanced affinity
